Data reported in ChEMBL document CHEMBL3232809, “Synthesis, antibiotic activity and structure-activity relationship study of some 3-enaminetetramic acids” (2014).
In brackets after ≈: the same amount, converted by molar mass.

Tests used:
Assay type in all cases: functional
Staphylococcus aureus [1] = assay: Antimicrobial activity against methicillin-resistant Staphylococcus aureus
Escherichia coli [2] = assay: Antimicrobial activity against Escherichia coli 49
Haemophilus influenzae [3] = assay: Antimicrobial activity against LS2 Efflux knock-out Haemophilus influenzae
Staphylococcus aureus [4] = assay: Antimicrobial activity against Staphylococcus aureus Oxford
Streptococcus pneumoniae [5] = assay: Antimicrobial activity against penicillin- and erythromycin-resistant Streptococcus pneumoniae
Pseudomonas aeruginosa = assay: Antimicrobial activity against Pseudomonas aeruginosa ATCC 27853
Enterococcus faecalis = assay: Antimicrobial activity against vancomycin-susceptible Enterococcus faecalis ATCC 29212
Escherichia coli [6] = assay: Antimicrobial activity against Escherichia coli ATCC 25922
Staphylococcus aureus [7] = assay: Antimicrobial activity against vancomycin-susceptible Staphylococcus aureus ATCC 25923
Enterococcus faecium = assay: Antimicrobial activity against vancomycin-resistant Enterococcus faecium
Streptococcus pneumoniae [8] = assay: Antimicrobial activity against penicillin- and erythromycin-resistant Streptococcus pneumoniae in presence of 2.5% horse blood
Staphylococcus aureus [9] = assay: Antimicrobial activity against methicillin-sensitive Staphylococcus aureus ATCC 13709
Haemophilus influenzae [10] = assay: Antimicrobial activity against Haemophilus influenzae ATCC 31517 MMSA
Streptococcus pneumoniae [11] = assay: Antimicrobial activity against erythromycin-susceptible Streptococcus pneumoniae ATCC 49619
Escherichia coli [12] = assay: Antimicrobial activity against Escherichia coli 50

| SMILES | MIC (Staphylococcus aureus [1]) [µg/mL] | MIC (Escherichia coli [2]) [µg/mL] | MIC (Haemophilus influenzae [3]) [µg/mL] | MIC (Staphylococcus aureus [4]) [µg/mL] | MIC (Streptococcus pneumoniae [5]) [µg/mL] | MIC (Pseudomonas aeruginosa) [µg/mL] | MIC (Enterococcus faecalis) [µg/mL] | MIC (Escherichia coli [6]) [µg/mL] | MIC (Staphylococcus aureus [7]) [µg/mL] | MIC (Enterococcus faecium) [µg/mL] | MIC (Streptococcus pneumoniae [8]) [µg/mL] | MIC (Staphylococcus aureus [9]) [µg/mL] | MIC (Haemophilus influenzae [10]) [µg/mL] | MIC (Streptococcus pneumoniae [11]) [µg/mL] | MIC (Escherichia coli [12]) [µg/mL] |
| --- | --- | --- | --- | --- | --- | --- | --- | --- | --- | --- | --- | --- | --- | --- | --- |
| COC(=O)[C@@]12CO[C@@H](C(C)(C)C)N1C(=O)/C(=C(\C)NC13CC4CC(CC(C4)C1)C3)C2=O | > 64 | > 32 | 16 (≈ 37.2 µM) | > 64 | > 64 | > 32 | > 64 | > 32 | > 64 | > 64 | > 64 | > 64 | > 64 | > 64 | > 32 |
| CCOC(=O)[C@]12CO[C@H](C(C)(C)C)N1C(=O)/C(=C(\C)NCCOc1ccccc1)C2=O | 64 (≈ 149 µM) | > 32 | 32 (≈ 74.3 µM) | > 64 | 1 (≈ 2.32 µM) | > 32 | 64 (≈ 149 µM) | > 32 | 64 (≈ 149 µM) | 8 (≈ 18.6 µM) | 2 | 64 (≈ 149 µM) | > 64 | 2 (≈ 4.65 µM) | > 32 |
| C/C(NCCOc1ccccc1Cl)=C1/C(=O)CN(C(=O)OC(C)(C)C)C1=O | > 64 | > 32 | 32 (≈ 81 µM) | > 64 | > 64 | > 32 | > 64 | > 32 | > 64 | > 64 | > 64 |  | > 64 | > 64 | > 32 |
| CCCCCCCCCCC/C(NCCCOC(C)C)=C1\C(=O)CNC1=O | 64 (≈ 168 µM) | > 32 | 2 (≈ 5.26 µM) | 16 (≈ 42 µM) | 4 (≈ 10.5 µM) | > 32 | 16 (≈ 42 µM) | > 32 | > 64 | 8 (≈ 21 µM) | 32 | 16 (≈ 42 µM) | > 64 | 4 (≈ 10.5 µM) | > 32 |
| CCCCCCCCC/C(=C1\C(=O)CNC1=O)N1CCCCC1 | 16 (≈ 49.9 µM) | > 32 | > 64 | 16 (≈ 49.9 µM) | 16 (≈ 49.9 µM) | > 32 | 16 (≈ 49.9 µM) | > 32 | 16 (≈ 49.9 µM) | 8 (≈ 25 µM) | 16 | 16 (≈ 49.9 µM) | 64 (≈ 200 µM) | > 64 | > 32 |
| CCCCCCCCCCCCC/C(NCCCN)=C1\C(=O)CN(CCCCCC)C1=O | 4 (≈ 8.89 µM) | > 32 | 32 (≈ 71.2 µM) | 4 (≈ 8.89 µM) | 8 (≈ 17.8 µM) | > 32 | 2 (≈ 4.45 µM) | > 32 | 4 (≈ 8.89 µM) | 1 (≈ 2.22 µM) | 32 | 2 (≈ 4.45 µM) | 64 (≈ 142 µM) | 2 (≈ 4.45 µM) | > 32 |
| CCCCCCCCCCCCC/C(NCCCNC(=O)COCC(=O)O)=C1\C(=O)CN(CCCCCC)C1=O | > 64 | > 32 | > 64 | > 64 | 16 (≈ 28.3 µM) | > 32 | 16 (≈ 28.3 µM) | > 32 | > 64 | 16 (≈ 28.3 µM) | 64 | > 64 | > 64 | 8 (≈ 14.1 µM) | > 32 |
| CCCCCCCCCCC/C(Nc1ccc(NC(=O)COCC(=O)O)cc1)=C1\C(=O)CN(CCCCCC)C1=O | > 64 | > 32 | > 64 | > 64 | 2 (≈ 3.5 µM) | > 32 | > 64 | > 32 | > 64 | > 64 | > 64 | > 64 | > 64 | 2 (≈ 3.5 µM) | > 32 |
| CCCCCCN1CC(=O)/C(=C(/NC2CCCCC2)C2CCCCC2)C1=O | > 64 | > 32 | > 64 | > 64 | 2 (≈ 5.34 µM) | > 32 | > 64 | > 32 | > 64 | > 64 | 64 | > 64 | > 64 | 2 (≈ 5.34 µM) | > 32 |
| CCCC(=O)N1CC(=O)/C(=C(\CC23CC4CC(CC(C4)C2)C3)NCCCN2CCOCC2)C1=O | > 64 | > 32 | 16 (≈ 33.9 µM) | > 64 | 64 (≈ 136 µM) | > 32 | > 64 | > 32 | > 64 | > 64 | 64 | > 64 | > 64 | 64 (≈ 136 µM) | > 32 |
| CCCC(=O)N1CC(=O)/C(=C(\CC23CC4CC(C)(CC(C)(C4)C2)C3)NCCCN2CCOCC2)C1=O | > 64 | > 32 | 8 (≈ 16 µM) | > 64 | 16 (≈ 32 µM) | > 32 | > 64 | > 32 | > 64 | > 64 | 32 | > 64 | > 64 | 16 (≈ 32 µM) | > 32 |
